Data: US4500707A, “Nucleosides useful in the preparation of polynucleotides” (University Patents, Inc., priority 1982, dated 1985)
Several values for one entry are separate records, joined by “and”; a condition that tells them apart may be missing. Equal entries are not always repeated. Each block holds one molecule with its values, some of them ahead of it.

How the values were obtained:
Type in all cases: physicochemical
[1] = Rate of detritylation and degradation of 5'-trityldeoxynucleosides using ZnBr2 at room temperature (Table III); conditions: for Detritylation time: 100% detritylation; for Detritylation %: <1 min
From the text: (§1) The procedure merely requires contacting the reactants preferably in a reaction solvent and detritylation occurs within short reaction times. The Lewis acid is normally suspended in the reaction solvent and the solvent is usually water-free to prevent reaction with the Lewis acid to form protic acids. In present experience, nitromethane is the preferred solvent although a variety of other solvents can be used, e.g. dioxane and tetrahydrofuran and mixtures of such solvents with each other and other solvents such as acetone, methylene chloride, and the like.
The results obtained with various tritylthymidines at room temperature with zinc bromide is give in Table III.
The Rate of Detritylation and Degradation of 5'-
Trityldeoxynucleosides Using ZnBr2 at Room

[2] = Rate of detritylation of various tritylthymidines using saturated ZnBr2 in nitromethane at 0° C. (Table IV); conditions: for % Detritylation: at the time of the same line (1, 10 or 30 min); for Detritylation time: time for the % detritylation of the same line
From the text: as §1
and at 0° C. in Table IV.
The Rate of Detritylation of Various Tritylthymidines
Using Saturated ZnBr2 in Nitromethane at 0° C.

[3] = Protic acid hydrolysis rates of triarylmethyl groups attached to the 5'-hydroxyl of deoxynucleosides (Table VIII); conditions: 2% toluenesulfonic acid in chloroform:methanol (7:3)
Description: The 5'-triarylmethyldeoxynucleosides were treated with protic and Lewis acids using carefully controlled conditions. The results of these studies are also recorded in Tables VII and VIII. […] The rates are more variable with protic acids.
^1 Reaction conditions were 2% toluenesulfonic acid in
chloroform:methanol (7:3). Aliquots were removed from the reaction
solution, quenched with ammonium acetate and analyzed visually after tlc
and exposure to HCl vapors. Time points were taken at 15, 30, 45, 60, 90,

[4] = Rate of detritylation and depurination using various solutions (Table II); conditions: for Detritylation time: 100% detritylation
From the text: A particularly preferred embodiment of the present invention is the detritylation of the 5'-O trityl nucleosides, deoxynucleotides, oligonucleotides, oligodeoxynucleotides, polynucleotides and polydeoxynucleotides using a Lewis acid, particularly zinc bromide, although other Lewis acids can also be employed, e.g. titanium tetrachloride. […] The process is also specific for 5'-O-trityl and thus provides a very practical procedure to permit production of 3'-O-trityl blocked nucleosides by reaction with the 3'-O and 5'-O ditritylated compound.
as §1
The Rate of Detritylation and Depurination of 5'-
Dimethoxytrityl-N--benzoyldeoxyadenosine Using
*All depurination results summarized in this communication were obtained
by analyzing reaction mixtures using reverse phase high pressure liquid
chromatography. Estimates of detritylation times were by thin layer
**A nitromethane solution saturated with ZnBr2 is approximately 0.1

[5] = Spectral characteristics of selected triarylmethyl alcohols (Table IX); conditions: saturated ZnBr2 nitromethane solution; for Extinction Coefficient: at the λ maximum of the same line
Description: of selected triarylmethyl alcohols.
^2 All spectra were taken in a saturated ZnBr2 nitromethane
solution. All spectra were recorded on a Carey model 21, scanning from 35

Structure (SMILES): COc1ccc(C(OC[C@H]2O[C@@H](n3cc(C)c(=O)[nH]c3=O)C[C@@H]2O)(c2ccccc2)c2ccc(OC)cc2)cc1 [5'-Dimethoxytritylthymidine]
Degradation time [1]: 24 h
Detritylation time [1]: < 1 min
Detritylation % [1]: 100%
% Detritylation [2]: 50%
Detritylation time [2]: 1 min
Time to Complete Hydrolysis [3]: 30 s

Structure (SMILES): COc1ccc(C(OC[C@H]2O[C@@H](n3cnc4c(NC(=O)c5ccccc5)ncnc43)C[C@@H]2O)(c2ccccc2)c2ccc(OC)cc2)cc1 [5'-O-dimethoxytrityl-N-benzoyldeoxyadenosine]
Depurination time ([4]; 0.5% toluenesulfonic acid/CHCl3:CH3OH (7:3), 0° C., 50% depurination): 8 h
Detritylation time ([4]; 0.5% toluenesulfonic acid/CHCl3:CH3OH (7:3), 0° C.): 10 min
Detritylation % ([4]; 0.5% toluenesulfonic acid/CHCl3:CH3OH (7:3), 0° C., 10 min): 100%
Depurination % ([4]; 0.5% toluenesulfonic acid/CHCl3:CH3OH (7:3), 0° C., 8 hrs): 50%
Depurination time ([4]; 2% toluenesulfonic acid/CHCl3:CH3OH (7:3), 18° C., 50% depurination): 0.083 h
Detritylation time ([4]; 2% toluenesulfonic acid/CHCl3:CH3OH (7:3), 18° C.): < 1 min
Depurination % ([4]; 2% toluenesulfonic acid/CHCl3:CH3OH (7:3), 18° C., 5 min): 50%
Detritylation % ([4]; 2% toluenesulfonic acid/CHCl3:CH3OH (7:3), 18° C., <1 min): 100%
Detritylation time ([4]; satd. ZnBr2/CH3NO2, 0° C.): 10 min
Detritylation % ([4]; satd. ZnBr2/CH3NO2, 0° C., 10 min): 100%
Depurination % ([4]; satd. ZnBr2/CH3NO2, 0° C., 21 hrs): < 5%
Depurination time ([4]; satd. ZnBr2/CH3NO2, 0° C., <5% depurination): 21 h
Depurination time ([4]; satd. ZnBr2/CH3NO2, 18° C., 50% depurination): 10 h
Detritylation time ([4]; satd. ZnBr2/CH3NO2, 18° C.): < 1 min
Depurination % ([4]; satd. ZnBr2/CH3NO2, 18° C., 10 hrs): 50%
Detritylation % ([4]; satd. ZnBr2/CH3NO2, 18° C., <1 min): 100%
Time to Complete Hydrolysis [3]: 30 s

Structure (SMILES): COc1ccc(C(OC[C@H]2O[C@@H](n3ccc(NC(=O)c4ccccc4)nc3=O)C[C@@H]2O)(c2ccccc2)c2ccc(OC)cc2)cc1 [5'-O-dimethoxytrityl-N-benzoyldeoxycytidine]
Degradation time [1]: 24 h
Detritylation time [1]: < 1 min
Detritylation % [1]: 100%
Time to Complete Hydrolysis [3]: 30 s

Structure (SMILES): COc1ccc(C(OC[C@H]2O[C@@H](n3cnc4c(=O)[nH]c(NC(=O)C(C)C)nc43)C[C@@H]2O)(c2ccccc2)c2ccc(OC)cc2)cc1 [5'-O-dimethoxytrityl-N-isobutyryldeoxyguanosine]
Degradation time [1]: 50 h
Detritylation time [1]: < 1 min
Detritylation % [1]: 100%
Time to Complete Hydrolysis [3]: 30 s

Structure (SMILES): COc1ccccc1C(OC[C@H]1O[C@@H](n2cnc3c(=O)[nH]c(NC(=O)C(C)C)nc32)C[C@@H]1O)(c1ccccc1)c1ccccc1OC [R1 = R2 = b; R3 = a, G]
Time to Complete Hydrolysis [3]: 45 s
t1/2 in H+ [3]: 15 s

Structure (SMILES): COc1ccccc1C(O)(c1ccccc1)c1ccccc1OC [R1 = R2 = b; R3 = a]
λ Maximum(s) [5]: 423 nanometers and 503 nanometers and 586 nanometers

Structure (SMILES): COc1ccccc1C(OC[C@H]1O[C@@H](n2ccc(NC(=O)c3ccccc3)nc2=O)C[C@@H]1O)(c1ccccc1OC)c1cccc2ccccc12 [R1 = R2 = b; R3 = n, C]
Time to Complete Hydrolysis [3]: 120 s

Structure (SMILES): COc1ccccc1C(OC[C@H]1O[C@@H](n2cc(C)c(=O)[nH]c2=O)C[C@@H]1O)(c1ccccc1OC)c1cccc2ccccc12 [R1 = R2 = b; R3 = n, T]
Time to Complete Hydrolysis [3]: 90 s
t1/2 in H+ [3]: 45 s

Structure (SMILES): COc1ccc(C(OC[C@H]2O[C@@H](n3cc(C)c(=O)[nH]c3=O)C[C@@H]2O)(c2ccccc2)c2cccc3ccccc23)cc1 (stereo partly shown) [R1 = n; R2 = c; R3 = a, T]
Time to Complete Hydrolysis [3]: 45 s
t1/2 in H+ [3]: 30 s

Structure (SMILES): Cc1cn([C@H]2C[C@H](O)[C@@H](COC(c3ccccc3)(c3ccc(F)cc3)c3cccc4ccccc34)O2)c(=O)[nH]c1=O (stereo partly shown) [R1 = n; R2 = e; R3 = a, T]
Time to Complete Hydrolysis [3]: > 600 s
t1/2 in H+ [3]: 180 s

Further lines, with some results ahead:

% Detritylation [2]: 50%
Detritylation time [2]: 10 min
Structure (SMILES): Cc1cn([C@H]2C[C@H](O)[C@@H](COC(c3ccccc3)(c3ccccc3)c3ccccc3)O2)c(=O)[nH]c1=O [5'-Tritylthymidine]

λ Maximum(s) [5]: 586 nanometers
Extinction Coefficient [5]: 15500 Molar^-1 cm^-1
Structure (SMILES): COc1ccccc1C(O)(c1ccccc1OC)c1cccc2ccccc12 [R1 = R2 = b; R3 = n]

λ Maximum(s) [5]: 545 nanometers and 455 nanometers
Structure (SMILES): COc1ccc(C(O)(c2ccccc2)c2cccc3ccccc23)cc1 (stereo not shown) [R1 = a; R2 = c; R3 = n]
Extinction Coefficient [5]: 25000 Molar^-1 cm^-1 and 28000 Molar^-1 cm^-1

λ Maximum(s) ([5]; listed as R1 = a, R2 = n, R3 = e): 577 nanometers and 421 nanometers
Structure (SMILES): OC(c1ccccc1)(c1ccc(F)cc1)c1cccc2ccccc12 (stereo not shown) [R1 = a; R2 = e; R3 = n]

Time to Complete Hydrolysis [3]: 240 s
t1/2 in H+ [3]: 60 s
Structure (SMILES): Cc1ccc(C(OC[C@H]2O[C@@H](n3cnc4c(NC(=O)c5ccccc5)ncnc43)C[C@@H]2O)(c2ccccc2)c2ccccc2)cc1 [R1 = h; R2 = R3 = a, A]

λ Maximum(s) [5]: 452 nanometers
Extinction Coefficient [5]: 42000 Molar^-1 cm^-1
Structure (SMILES): Cc1ccc(C(O)(c2ccccc2)c2ccccc2)cc1 [R1 = h; R2 = R3 = a]
